This note sets out measurements from the NIST ThermoML archive (doi:10.1021/acs.jced.8b00400).

Numbers after ± are expanded uncertainties.

The series is described as follows: osmotic coefficient (dimensionless); mn = molality of the nth substance listed, in mol/kg. The settings on record: 298.15 K, 100 kPa, Liquid, isopiestic method.

On to `[Cl-].[K+]` [potassium chloride] + O, for which the osmotic coefficient runs as follows: (m1 = 0.9956) 0.901 ± 0.011; (m1 = 2.002) 0.916 ± 0.011.

`[Na+].[OH-]` [sodium hydroxide] + O: the osmotic coefficient (m1 = 1.004) came out at 0.9589 ± 0.0089 and the osmotic coefficient (m1 = 2.01) came out at 1.032 ± 0.0089.
